Molecular target: T1, C-X-C chemokine receptor type 4 (Homo sapiens, UniProt P61073)
Assay: Displacement of [125I]SDF1 from human CXCR4 expressed in CHO cells
Assay type: cell-based
Conditions: not given

T1 sequence (P61073 whole entry): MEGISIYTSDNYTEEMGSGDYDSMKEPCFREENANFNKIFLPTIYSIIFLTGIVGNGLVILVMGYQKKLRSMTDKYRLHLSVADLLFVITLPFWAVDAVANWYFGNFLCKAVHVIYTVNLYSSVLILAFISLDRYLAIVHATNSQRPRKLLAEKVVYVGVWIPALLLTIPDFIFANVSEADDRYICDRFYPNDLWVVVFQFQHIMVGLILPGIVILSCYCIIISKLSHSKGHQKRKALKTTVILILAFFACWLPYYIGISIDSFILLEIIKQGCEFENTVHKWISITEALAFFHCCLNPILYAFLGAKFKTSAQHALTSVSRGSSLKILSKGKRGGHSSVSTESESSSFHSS

**Q.** How did the IC50 turn out when NC(N)=NCCCn1c(C(=O)NCCc2c[nH]c3ccccc23)cc2cc(NC(=O)CN=C(N)N)ccc21 was run?
**A.** 3 µM

**Q.** For NC(N)=NCCCn1c(C(=O)Nc2cccc3ccccc23)cc2cc(NC(=O)Cc3ccc(O)cc3)ccc21, which IC50 is on record?
**A.** 4.8 µM

**Q.** CC(C)C[C@@H](NC(=N)N)C(=O)Nc1ccc2c(c1)cc(C(=O)NCCc1c[nH]c3ccccc13)n2CCCNC(=N)N was tested. Which IC50 did it give?
**A.** 2.2 µM

**Q.** CC(C)C[C@H](NC(=N)N)C(=O)Nc1ccc2c(c1)cc(C(=O)NCCc1c[nH]c3ccccc13)n2CCCNC(=N)N was tested. Which IC50 did it give?
**A.** 1.2 µM

**Q.** N=C(N)NCCCn1c(C(=O)NCCc2c[nH]c3ccccc23)cc2cc(NC(=O)C3CCN(C(=N)N)CC3)ccc21 was tested. Which IC50 did it give?
**A.** 3 µM

**Q.** Which IC50 does the source give for N=C(N)NCCCn1c(C(=O)NCCc2c[nH]c3ccccc23)cc2cc(NC(=O)[C@H](Cc3ccccc3)NC(=N)N)ccc21 here?
**A.** 1.7 µM

**Q.** With NC(N)=NCCc1cc2cc(NC(=O)CCc3ccc(O)cc3)ccc2n1CCc1ccc2ccccc2c1 as the compound, how does the IC50 read?
**A.** 2.7 µM

**Q.** Which IC50 does the source give for N=C(N)NCCCn1c(C(=O)NCCc2c[nH]c3ccccc23)cc2cc(NC(=O)[C@@H](Cc3ccccc3)NC(=N)N)ccc21 here?
**A.** 3.7 µM

Molecular target: T1, C-X-C chemokine receptor type 4
Assay: Displacement of [125I]SDF1 from human CXCR4 expressed in CHO cells at 10 uM
Assay type: cell-based
Conditions: not given

**Q.** How did the Activity turn out when N=C(N)NCCCn1c(C(=O)NCCc2ccc3ccccc3c2)cc2cc(NC(=O)CNC(=N)N)ccc21 was run?
**A.** 63%

**Q.** With N=C(N)NCCCn1c(C(=O)NCCc2c[nH]c3ccccc23)cc2cc(NC(=O)CCNC(=N)N)ccc21 as the compound, how does the Activity read?
**A.** 70%

**Q.** With N=C(N)NCCCn1c(C(=O)NCCc2c[nH]c3ccccc23)cc2cc(NC(=O)CNC(=N)N)ccc21 as the compound, how does the Activity read?
**A.** 88%

**Q.** With N=C(N)NCCCn1c(C(=O)NCCc2ccc(O)cc2)cc2cc(NC(=O)CNC(=N)N)ccc21 as the compound, how does the Activity read?
**A.** 23%

**Q.** How did the Activity turn out when N=C(N)NCCCn1c(C(=O)Nc2cccc3ccccc23)cc2cc(NC(=O)CCc3ccc(O)cc3)ccc21 was run?
**A.** 55%

**Q.** For N=C(N)NCCCn1c(C(=O)NCCc2c[nH]c3ccccc23)cc2cc(NC(=O)C(Cc3ccccc3)NC(=N)N)ccc21 (racemic), which Activity is on record?
**A.** 72%

**Q.** For N=C(N)NCCCn1c(C(=O)NCCc2c[nH]c3ccccc23)cc2cc(NC(=O)C3CCN(C(=N)N)CC3)ccc21, which Activity is on record?
**A.** 86%

**Q.** Which Activity does the source give for N=C(N)NCCCn1c(C(=O)Nc2cccc3ccccc23)cc2cc(NC(=O)Cc3ccc(O)cc3)ccc21 here?
**A.** 62%

**Q.** CC(C)CC(NC(=N)N)C(=O)Nc1ccc2c(c1)cc(C(=O)NCCc1c[nH]c3ccccc13)n2CCCNC(=N)N (racemic) was tested. Which Activity did it give?
**A.** 77%

**Q.** How did the Activity turn out when N=C(N)NCCc1cc2cc(NC(=O)CCc3ccc(O)cc3)ccc2n1CCc1ccc2ccccc2c1 was run?
**A.** 53%

**Q.** Which Activity does the source give for N=C(N)NCCCn1c(C(=O)NCCc2cccc3ccccc23)cc2cc(NC(=O)CNC(=N)N)ccc21 here?
**A.** 61%

System: Human immunodeficiency virus 1
Assay: Antiviral activity against HIV1 3B assessed as inhibition of virus-induced cytopathogenicity
Assay type: functional, organism-based
Conditions: Human immunodeficiency virus 1, 3B

**Q.** With CC(C)C[C@H](NC(=N)N)C(=O)Nc1ccc2c(c1)cc(C(=O)NCCc1c[nH]c3ccccc13)n2CCCNC(=N)N as the compound, how does the EC50 read?
**A.** 5.4 µM

Reference: ChEMBL document CHEMBL1157489, “Identification of novel non-peptide CXCR4 antagonists by ligand-based design approach” (Bioorg Med Chem Lett, 2008)
